The MIC is the lowest concentration found to suppress growth.

The subject of test [1] is cholesterol biosynthesis in the cultured Hep-G2 cells. Nature of the test: Inhibitory activity on cholesterol biosynthesis in cultured cells ([14C] acetate incorporation). The format is cell-based. Conditions: HepG2; Human hepatoma (Hep-G2) cells, [14C] sodium acetate, 6 hours; read-out: 50% inhibitory concentration (IC₅₀). Here is the method:
Human hepatoma (Hep-G2) cells were cultured in 10 cm² dishes until they formed a monolayer. One milliliter of the culture medium was replaced, and 1 µCi of [¹⁴C] sodium acetate and 1 microliter of a dimethyl sulfoxide solution of a test drug were added, and the cells were cultured at 37 °C in air containing 5 % of carbon dioxide for 6 hours.
After the cultivation, the medium was aspirated, and the cells were cooled with ice, and washed with Dulbecco's phosphate buffered saline solution. The resulting cells were scraped by a rubber policeman, and collected by centrifugation. The cells collected were dissolved in 400 microliters of 0.3N sodium hydroxide. A 200 microliters aliquot of the solution was used for extraction, and the remainder, for protein determination.
To 200 microliters of the extracted cells, 15 % ethanolic potassium hydroxide was added, and saponification was carried out at 75 °C for 1 hour. Water (1 ml) was then added, and the mixture was extracted with 2 ml of petroleum ether twice to remove non-saponified materials. The petroleum ether extracts were washed with 1 ml of water, and evaporated under a nitrogen stream. The residue was spotted on a pre-coated silica gel TLC plate using a small amount of chloroform, and developed with hexane/ethyl ether/acetic acid (85:15:4). Cholesterol and squalene portions on the TLC were detected with iodine, and the corresponding TLC portions were cut out. The TLC strips were immersed in a toluene-type scintillator, and radioactivity was counted by a liquid scintillation counter. The results were corrected by the amount of proteins measured by the method described in J. Biol. Chem., vol. 193, page 265, 1951. The 50 % inhibitory concentration (IC₅₀ value) of the compound of the invention on cholesterol biosynthesis in the cultured Hep-G2 cells was calculated.

The next test has as its system cholesterol biosynthesis. The experiment in a line: Test on inhibition of cholesterol biosynthesis in vivo ([14C] acetate, plasma 14C-cholesterol). Conditions: male SD rats, 100 mg/kg orally. How it is done: Male SD rats, 5 weeks of age, were used in the in vivo test. The rats were kept for 9 days in an environment of reversed light cycle (i.e., dark between 6:00 am and 6:00 pm). The rats were allowed to take a solid diet and water freely. The test drug was orally administered two hours before dark sixth hour when the cholesterol synthesis reached a maximum. Compounds 6 and 44 were administered as a suspension in a 0.5 % aqueous solution of methyl cellulose. Compound 45 was administered in a 0.5 % aqueous solution of methyl cellulose containing 5 % of dimethyl sulfoxide and 1 % Tween 80. The dose was 1 ml/100 g of body weight.
An equal volume of 0.5 % methyl cellulose was administered to a control group. One hour after administration of the test drug, [¹⁴C] sodium acetate (56 mCi/mmole) was intraperitoneally administered to the rats in a dose of 20 µCi/100 g of body weight. At dark sixth hour, a blood sample was obtained from the abdominal artery under ether anesthesia, and the plasma was separated by centrifugation.
Two milliliters of plasma was mixed with a 15 % methanolic potassium hydroxide and saponified by heating at 75 °C for 3 hours. The resulting sample was extracted with 2 ml of petroleum ether twice. The extracts were washed with 2 ml of distilled water, and finally evaporated under a nitrogen stream. The resulting residue was dissolved in a small amount of ethyl ether, and all the solution was spotted on a pre-coated silica gel TLC plate. The plate was developed with a solvent system composed of hexane/ethyl ether/acetic acid (85:15:4). Color formation was carried out by iodine, and the radioactivity of the cholesterol portion was measured by a liquid scintillation counter.
The results were expressed in dpm of the resulting ¹⁴C-cholesterol present in 1 ml of the plasma. The inhibition of cholesterol biosynthesis was calculated by comparing the amounts of ¹⁴C-cholesterol biosynthesized in the test group and that in the control group.

A further test addresses T1, rat squalene epoxidase (Rattus norvegicus, UniProt P52020).
T1 construct: Livers were extracted and homogenized; from tissue; host or cells: liver of SD-strain female rats; microsomes solubilized with 2 % Triton X-100, 105000 x g supernatant
Nature of the test: Squalene epoxidase inhibiting activity (3H-squalene to squalene-2,3-epoxide, solubilized liver microsome fraction). The format is biochemical. Conditions: 8 µM 3H-squalene, 37 °C, 30 minutes, read-out: 50 % inhibitory concentration (IC50).

Another test relates to Trichophyton. Nature of the test: Antimycotic activity test (Sabouraud's agar dilution, MIC). The format is cell-based. Conditions: 120 h, 28 °C for 5 days, read-out: MIC. Here is the method:
(§1) Each of the test fungi was cultured (Candida albicans was cultured overnight in Sabouraud broth; Trichophyton was inoculated in Sabouraud's agar and cultured for 2 days, after which the spores were harvested). Thereafter, one platinum loopful of Candida albicans or Trichophyton (10⁶ cells/ml for C. albicans; 10⁶ spores/ml for Trichophyton) was inoculated in Sabouraud's agar containing the test drug in various concentrations, and cultured (at 37 °C for 2 days for C. albicans; at 28 °C for 5 days for Trichophyton). Then, the minimum growth inhibition concentration (MIC) was measured. […]
For orientation: In agar dilution, organisms are placed on agar that contains the substance at set levels.

The next test deals with Candida albicans. The description is as above. The format is cell-based. Conditions: 48 h, C. albicans, 37 °C for 2 days, read-out: MIC. How it is done:
as §1

SMILES strings stand for the structures.

T1 sequence (P52020 whole entry): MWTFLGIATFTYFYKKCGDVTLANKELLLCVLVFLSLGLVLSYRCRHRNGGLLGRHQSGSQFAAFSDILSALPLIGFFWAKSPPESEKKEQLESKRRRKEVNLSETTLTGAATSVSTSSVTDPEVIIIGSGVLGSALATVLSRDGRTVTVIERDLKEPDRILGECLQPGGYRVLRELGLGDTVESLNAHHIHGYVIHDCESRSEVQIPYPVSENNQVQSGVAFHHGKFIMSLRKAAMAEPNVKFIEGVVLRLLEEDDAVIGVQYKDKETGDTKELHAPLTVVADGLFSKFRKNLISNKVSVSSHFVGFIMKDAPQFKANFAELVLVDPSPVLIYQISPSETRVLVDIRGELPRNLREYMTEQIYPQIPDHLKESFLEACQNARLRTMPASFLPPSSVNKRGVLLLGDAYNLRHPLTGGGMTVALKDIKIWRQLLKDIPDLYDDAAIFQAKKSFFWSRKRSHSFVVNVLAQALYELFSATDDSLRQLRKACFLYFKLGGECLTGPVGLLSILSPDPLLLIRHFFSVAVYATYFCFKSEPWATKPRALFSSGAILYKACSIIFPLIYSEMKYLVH

Take `CCCN(C/C=C/C#CC(C)(C)C)Cc1cccc(OCc2ccccc2C)c1.Cl` [Compound 45, (E)-N-(6,6-dimethyl-2-hepten-4-ynyl)-N-propyl-3-(2-methylbenzyloxy)benzylamine hydrochloride]: the IC50 in test [1] stood at 83 nM; at rat squalene epoxidase it was 120 nM. Besides, the ¹⁴C-cholesterol in the test on cholesterol biosynthesis (dpm of 14C-cholesterol present in 1 ml of the plasma) is 274±155 dpm. The “Inhibition of cholesterol biosynthesis” value in the test with cholesterol biosynthesis (test group compared with control group) came to 85%. Moreover, the MIC in the test on Trichophyton and in the test with Candida albicans was greater than 100 µg/mL in each case.

The record behind these values is patent publication EP0318860B1, “Substituted alkylamine derivatives” (BANYU PHARMACEUTICAL CO., LTD., priority 1987, dated 1989).
